Like-named read-outs stand apart in the source and are kept apart here.
How the values were obtained:
[1] = test system: MV4;11 cells; experiment: Cell viability assay (CellTiter-Glo) in MV4;11 cells, alone or with gilteritinib; format: cell-based; conditions: Homo sapiens, MV4;11 cells, three days, CellTiter-Glo, read-out: MV4
[2] = test system: MOLM-13 cells; experiment: Cell viability assay (CellTiter-Glo) in MOLM-13 cells, alone or with gilteritinib; format: cell-based; conditions: Homo sapiens, MOLM-13 cells, three days, CellTiter-Glo
[3] = MV4-11, 72 h, compound alone (without gilteritinib), 11 IC50
[4] = MV4-11, 72 h, with gilteritinib 10 nM, 11 IC50 gilteritinib
[5] = MOLM-13, 72 h, compound alone (without gilteritinib), read-out: MOLM-13 IC50
[6] = MOLM-13, 72 h, with gilteritinib 20 nM, read-out: MOLM-13 IC50 gilteritinib
[7] = MV4-11, 72 h, compound with gilteritinib 10 nM, 11 IC50 gilteritinib
[8] = MOLM-13, 72 h, compound with gilteritinib 20 nM, read-out: MOLM-13 IC50 gilteritinib

| IC50 [1, 3] | IC50 [1, 4] | IC50 [2, 5] | IC50 [2, 6] | IC50 [1, 7] | IC50 [2, 8] | Compound | IC50 ([1]; 72 h, compound alone (without gilteritinib), 11 IC50) | IC50 ([1]; 72 h, with gilteritinib 10 nM, 11 IC50 gilteritinib) | IC50 ([2]; 72 h, compound alone (without gilteritinib), read-out: MOLM-13 IC50) | IC50 ([2]; 72 h, with gilteritinib 20 nM, read-out: MOLM-13 IC50 gilteritinib) |
| --- | --- | --- | --- | --- | --- | --- | --- | --- | --- | --- |
| > 1000 nM | > 1000 nM | > 1000 nM | 100 to 1000 nM |  |  | O=C1CCC(N2C(=O)c3ccc(NCCCCCCN4CCC(C5CCC(O)CC5)CC4)cc3C2=O)C(=O)N1 (centres unmarked) [GS-335, 2-(2,6-Dioxopiperidin-3-yl)-5-((6-(4-(4-hydroxycyclohexyl)piperidin-1-yl)hexyl)amino)isoindoline-1,3-dione] |  |  |  |  |
| > 1000 nM | > 1000 nM | > 1000 nM | > 1000 nM |  |  | O=C1CCC(N2C(=O)c3ccc(OCCCCCCn4cc(-c5cnc6ccccc6n5)cn4)cc3C2=O)C(=O)N1 (centres unmarked) [GS-354, 2-(2,6-Dioxopiperidin-3-yl)-5-((6-(4-(quinoxalin-2-yl)-1H-pyrazol-1-yl)hexyl)oxy)isoindoline-1,3-dione] |  |  |  |  |
| < 10 nM | < 10 nM | < 10 nM | < 10 nM |  |  | Cc1nn([C@H]2C[C@@H](CCCNc3ccc4c(c3)C(=O)N(C3CCC(=O)NC3=O)C4=O)C2)cc1-c1cnc2ccc(C3CCOCC3)cc2n1 (stereo partly drawn) [GS-223, 2-(2,6-Dioxopiperidin-3-yl)-5-((3-(cis-3-(3-methyl-4-(7-(tetrahydro-2H-pyran-4-yl)quinoxalin-2-yl)-1H-pyrazol-1-yl)cyclobutyl)propyl)amino)isoindoline-1,3-dione] |  |  |  |  |
| < 10 nM |  | < 10 nM |  | < 10 nM | < 10 nM | O=C1CCC(N2C(=O)c3ccc(NCCCCC(F)(F)C(=O)N4CCC(n5cc(-c6cnc7ccccc7n6)cn5)CC4)cc3C2=O)C(=O)N1 (centres unmarked) [GS-520, 5-((5,5-difluoro-6-oxo-6-(4-(4-(quinoxalin-2-yl)-1H-pyrazol-1-yl)piperidin-1-yl)hexyl)amino)-2-(2,6-dioxopiperidin-3-yl)isoindoline-1,3-dione] |  |  |  |  |
| 10 to 100 nM | 10 to 100 nM | 100 to 1000 nM | 10 to 100 nM |  |  | N#Cc1cccc2ncc(-c3cnn([C@H]4C[C@H](CCCNc5ccc6c(c5)C(=O)N(C5CCC(=O)NC5=O)C6=O)C4)c3)nc12 (stereo partly drawn) [GS-197, 3-(1-(trans-3-(3-((2-(2,6-Dioxopiperidin-3-yl)-1,3-dioxoisoindolin-5-yl)amino)propyl)cyclobutyl)-1H-pyrazol-4-yl)quinoxaline-5-carbonitrile] |  |  |  |  |
| < 10 nM | < 10 nM | < 10 nM | < 10 nM |  |  | O=C1CCC(N2C(=O)c3ccc(NCCC[C@H]4C[C@H](n5cc(-c6cnc7ccc(CN8CCNCC8)cc7n6)c(C6CC6)n5)C4)cc3C2=O)C(=O)N1 (stereo partly drawn) [GS-228, 5-((3-(trans-3-(3-Cyclopropyl-4-(7-(piperazin-1-ylmethyl)quinoxalin-2-yl)-1H-pyrazol-1-yl)cyclobutyl)propyl)amino)-2-(2,6-dioxopiperidin-3-yl)isoindoline-1,3-dione] |  |  |  |  |
|  |  |  |  |  |  | O=C1CCC(N2C(=O)c3ccc(NCCCC(=O)N4CCN(c5ccccn5)CC4)cc3C2=O)C(=O)N1 (centres unmarked) [GS-318, 2-(2,6-Dioxopiperidin-3-yl)-5-((4-oxo-4-(4-(pyridin-2-yl)piperazin-1-yl)butyl)amino)isoindoline-1,3-dione] | 100 to 1000 nM | 10 to 100 nM | > 1000 nM | 10 to 100 nM |
| 100 to 1000 nM | > 1000 nM | > 1000 nM | 100 to 1000 nM |  |  | O=C1CCC(N2C(=O)c3ccc(NCCC[C@H]4C[C@H](n5cc(-c6cccc(=O)[nH]6)cn5)C4)cc3C2=O)C(=O)N1 (stereo partly drawn) [GS-249, 2-(2,6-Dioxopiperidin-3-yl)-5-((3-(trans-3-(4-(6-oxo-1,6-dihydropyridin-2-yl)-1H-pyrazol-1-yl)cyclobutyl)propyl)amino)isoindoline-1,3-dione] |  |  |  |  |
| 100 to 1000 nM | 10 to 100 nM | > 1000 nM | 10 to 100 nM |  |  | O=C1CCC(N2C(=O)c3ccc(NC[C@H]4C[C@H](n5cc(-c6cc7cc[nH]c7cn6)c(C6CC6)n5)C4)cc3C2=O)C(=O)N1 (stereo partly drawn) [GS-279, 5-(((trans-3-(3-Cyclopropyl-4-(1H-pyrrolo[2,3-c]pyridin-5-yl)-1H-pyrazol-1-yl)cyclobutyl)methyl)amino)-2-(2,6-dioxopiperidin-3-yl)isoindoline-1,3-dione] |  |  |  |  |
| > 1000 nM |  | > 1000 nM |  | 10 to 100 nM | 10 to 100 nM | O=C1CCC(N2C(=O)c3ccc(NCCC[C@H]4C[C@H](n5cc(-c6nccc7cnccc67)c(C6CC6)n5)C4)cc3C2=O)C(=O)N1 (stereo partly drawn) [GS-628, 5-((3-(trans-3-(3-Cyclopropyl-4-(2,6-naphthyridin-1-yl)-1H-pyrazol-1-yl)cyclobutyl)propyl)amino)-2-(2,6-dioxopiperidin-3-yl)isoindoline-1,3-dione] |  |  |  |  |
| 10 to 100 nM |  | 10 to 100 nM |  | 10 to 100 nM | < 10 nM | Cc1cccc2nc(-c3cnn(CCCCCCNc4ccc5c(c4)C(=O)N(C4CCC(=O)NC4=O)C5=O)c3)cnc12 (centres unmarked) [GS-512, 2-(2,6-dioxopiperidin-3-yl)-5-((6-(4-(5-methylquinoxalin-2-yl)-1H-pyrazol-1-yl)hexyl)amino)isoindoline-1,3-dione] |  |  |  |  |
| 100 to 1000 nM | 10 to 100 nM | > 1000 nM | < 10 nM |  |  | O=C1CCC(N2C(=O)c3ccc(NCCCC4CC(n5cc(-c6cnc7ccc(N8CCNCC8)cc7n6)cn5)C4)cc3C2=O)C(=O)N1 (centres unmarked) [GS-174, 2-(2,6-Dioxopiperidin-3-yl)-5-((3-(3-(4-(7-(piperazin-1-yl)quinoxalin-2-yl)-1H-pyrazol-1-yl)cyclobutyl)propyl)amino)isoindoline-1,3-dione] |  |  |  |  |
| 10 to 100 nM | < 10 nM | 10 to 100 nM | < 10 nM |  |  | O=C1CCC(N2Cc3c(Nc4ccnc(Nc5cccc(N6CCN(c7ccccn7)CC6)c5)n4)cccc3C2=O)C(=O)N1 (centres unmarked) [GS-076, 3-(1-Oxo-4-((2-((3-(4-(pyridin-2-yl)piperazin-1-yl)phenyl)amino)pyrimidin-4-yl)amino)isoindolin-2-yl)piperidine-2,6-dione] |  |  |  |  |
| > 1000 nM | > 1000 nM | > 1000 nM | > 1000 nM |  |  | O=C1CCC(N2Cc3c(Nc4ccnc(N5CCC(N6CCC(n7cc(-c8cnc9ccccc9n8)cn7)CC6)C5)n4)cccc3C2=O)C(=O)N1 (centres unmarked) [GS-074, 3-(1-Oxo-4-((2-(3-(4-(4-(quinoxalin-2-yl)-1H-pyrazol-1-yl)piperidin-1-yl)pyrrolidin-1-yl)pyrimidin-4-yl)amino)isoindolin-2-yl)piperidine-2,6-dione] |  |  |  |  |
| < 10 nM | < 10 nM | 10 to 100 nM | < 10 nM |  |  | O=C1CCC(N2C(=O)c3ccc(NC[C@H]4C[C@H](n5cc(-c6nccc7ncccc67)c(C6CC6)n5)C4)cc3C2=O)C(=O)N1 (stereo partly drawn) [GS-281, 5-(((trans-3-(3-Cyclopropyl-4-(1,6-naphthyridin-5-yl)-1H-pyrazol-1-yl)cyclobutyl)methyl)amino)-2-(2,6-dioxopiperidin-3-yl)isoindoline-1,3-dione] |  |  |  |  |
| 10 to 100 nM | < 10 nM | 100 to 1000 nM | < 10 nM |  |  | O=C1CCC(N2C(=O)c3ccc(NCCC[C@H]4C[C@H](n5cc(-c6ncccc6Cl)c(C6CC6)n5)C4)cc3C2=O)C(=O)N1 (stereo partly drawn) [GS-070, 5-((3-(trans-3-(4-(3-chloropyridin-2-yl)-3-cyclopropyl-1H-pyrazol-1-yl)cyclobutyl)propyl)amino)-2-(2,6-dioxopiperidin-3-yl)isoindoline-1,3-dione] |  |  |  |  |
| 100 to 1000 nM | > 1000 nM | > 1000 nM | 100 to 1000 nM |  |  | O=C1CCC(N2C(=O)c3ccc(NCC4CCC(Cn5cc(-c6cnc7ccccc7n6)cn5)CC4)cc3C2=O)C(=O)N1 (centres unmarked) [GS-155, 2-(2,6-Dioxopiperidin-3-yl)-5-(((4-((4-(quinoxalin-2-yl)-1H-pyrazol-1-yl)methyl)cyclohexyl)methyl)amino)isoindoline-1,3-dione] |  |  |  |  |
| 10 to 100 nM | < 10 nM | 100 to 1000 nM | < 10 nM |  |  | O=C1CCC(N2C(=O)c3ccc(NCCCCCC(=O)N4CCC(n5cc(-c6ccccn6)cn5)CC4)cc3C2=O)C(=O)N1 (centres unmarked) [GS-053, 2-(2,6-Dioxopiperidin-3-yl)-5-((6-oxo-6-(4-(4-(pyridin-2-yl)-1H-pyrazol-1-yl)piperidin-1-yl)hexyl)amino)isoindoline-1,3-dione] |  |  |  |  |
| 100 to 1000 nM | > 1000 nM | > 1000 nM | > 1000 nM |  |  | O=C1CCC(N2C(=O)c3ccc(CNC(=O)C(F)(F)c4cccc(-n5cc(-c6cnc7ccccc7n6)cn5)c4)cc3C2=O)C(=O)N1 (centres unmarked) [GS-340, N-((2-(2,6-Dioxopiperidin-3-yl)-1,3-dioxoisoindolin-5-yl)methyl)-2,2-difluoro-2-(3-(4-(quinoxalin-2-yl)-1H-pyrazol-1-yl)phenyl)acetamide] |  |  |  |  |
| > 1000 nM | > 1000 nM | > 1000 nM | > 1000 nM |  |  | O=C1CCC(N2C(=O)c3ccc(NCCCC4(C(=O)N5CCC(n6cc(-c7cnc8ccccc8n7)cn6)CC5)CC4)cc3C2=O)C(=O)N1 (centres unmarked) [GS-141, 2-(2,6-Dioxopiperidin-3-yl)-5-((3-(1-(4-(4-(quinoxalin-2-yl)-1H-pyrazol-1-yl)piperidine-1-carbonyl)cyclopropyl)propyl)amino)isondoline-1,3-dione] |  |  |  |  |
